Data on 2 compounds can be found in ChEMBL document CHEMBL1147389, “Two bioactive pterocarpans from Erythrina burana” (J Nat Prod, 1993).

SMILES strings stand for the structures.

Experiment [1] relates to Saccharomyces cerevisiae. The experiment is described as follows: DNA damaging activity against RS322 YK rad52 DNA repair gene deficient Saccharomyces cerevisiae mutant assessed as drug level required to produce 12 mm zone of inhibition after 48 hrs. It is filed as functional.
Experiment [2] concerns Saccharomyces cerevisiae. As to the kind of experiment: DNA damaging activity against RS167 N rad6 DNA repair gene deficient Saccharomyces cerevisiae mutant assessed as drug level required to produce 12 mm zone of inhibition after 48 hrs. It is filed as functional.
Experiment [3] has as its system Saccharomyces cerevisiae. As to the kind of experiment: DNA damaging activity against RS321 […] DNA repair gene deficient Saccharomyces cerevisiae mutant assessed as drug level required to produce 12 mm zone of inhibition after 48 hrs. It is filed as functional.
Experiment [4] relates to Saccharomyces cerevisiae. As to the kind of experiment: DNA damaging activity against RS188N rad DNA repair gene expressing Saccharomyces cerevisiae assessed as drug level required to produce 12 mm zone of inhibition after 48 hrs. It is filed as functional.
Experiment [5] concerns P388. The experiment is described as follows: Cytotoxicity against mouse P388 cells. Type of experiment: functional, cell-based.
In experiment [6] the test system is CHO. As to the kind of experiment: Cytotoxicity against CHO cells. It is filed as cell-based. As to conditions: Cricetulus griseus.
For experiment [7], the system named is CHO. The experiment is described as follows: Cytotoxicity against p-glycoprotein overexpressing CHO cells. It is filed as cell-based. As to conditions: Cricetulus griseus.

`COc1ccc2c(c1CC=C(C)C)O[C@H]1c3ccc(O)cc3OC[C@@]21O` [ERYTHRABYSSIN I]: the IC12 in experiment [1] came to 80 µg/mL; in experiment [2] it was 540 µg/mL; in experiment [3] it was 108 µg/mL; in experiment [4], 330 µg/mL. In addition, the IC50 was above 10 µM in experiment [5], above 20 µM in experiment [6] and 4 µM in experiment [7].
As for `CC(C)=CCc1c(O)ccc2c1O[C@H]1c3ccc(O)cc3OC[C@@H]21` [PHASEOLLIDIN], the IC12 is 500 µg/mL in experiment [1], above 1000 µg/mL in experiment [2], 400 µg/mL in experiment [3] and 5500 µg/mL in experiment [4]. For the same compound, the values for the IC50 in experiment [5], in experiment [6] and in experiment [7] were above 10 µM, 4 µM and 7.6 µM, respectively.

For orientation: IC50 means the concentration that gives 50% inhibition.
